The record followed here is paper PMC5740082, “Identification of a CARM1 Inhibitor with Potent In Vitro and In Vivo Activity in Preclinical Models of Multiple Myeloma” (Scientific Reports, 2017).

The test system of experiment [1] is DB. The experiment can be described thus: Six-day cell proliferation assay (CellTiter-Glo). In kind it is cell-based. As to conditions: Homo sapiens, 144 h; DB (GCB DLBCL), 6 days; read-out: Average day 6 gIC50. The protocol: (§1) Six-day cell proliferation assay
(§2) Optimal cell seeding density was determined empirically for each cell lines by examining the gro wth of a wide ran ge o f seedin g densities in a 3 84-well formatto identify conditio ns that permitted maximal and continued proliferation for 6 days. Cells were plat ed in duplicate plates 24 hours before treatment with a 20- point two-fold dilution series of compound or 0.15%
(§3) DMSO. Plates were incubated for 6 da ys at 37°C in 5% CO2. Cells were th en l ysed with CellTiter-Glo (CTG) (Pr omega) and chemiluminescent sign al was detected with an appropriat e microplate reader. In addition, an untreated plate of cells was harvested at the time of compound addition (T0) to quantif y the initial cell densit y. CTG values obtained after 6 days of treatment were expressed as a percent of the T0 value and plotted against compound concentration. […]
(§4) Supplementary Table S 3. […] A p anel […]
(§5) of cell lines was treated with EZM2302fo r 6da ys in a proliferation ass a y. Cell densit y (as assessed b y CellTiter-Gl o) at da y 0 was compared to day 6 to det ermine growth IC 50 values , calculated us i n g a f our parameter dose response equation.
(§6) Cell Type According to Cell Type Category Cell L ine Name gIC50 Average day 6 Standard Replicates
(§7) Supplier Modifier gIC50 (nM) Deviation […]
(§8) Burkitt lymphoma lymphoma NC-37 > 7331 0 2 […]
Background: ATP-based viability assays read luminescence as a measure of living cells.

Experiment [2] relates to MOLP-2. The experiment can be described thus: Six-day cell proliferation assay (CellTiter-Glo). In kind it is cell-based. Particulars: 144 h; MOLP-2 (MM), 6 days; read-out: Average day 6 gIC50. As to the method:
as §1, §2, §3, §4, §5, §6, §7, §8

The subject of experiment [3] is MOLM-16. The experiment in a line: Six-day cell proliferation assay (CellTiter-Glo). In kind it is cell-based. As to conditions: MOLM16, 144 h; MOLM-16 (AML), 6 days; read-out: Average day 6 gIC50. As to the method: as §1, §2, §3, §4, §5, §6, §7, §8
The test system of experiment [4] is NCI-H929. The experiment can be described thus: Six-day cell proliferation assay (CellTiter-Glo). In kind it is cell-based. Particulars: Homo sapiens, 144 h; NCI-H929 (MM), 6 days; read-out: Average day 6 gIC50. As to the method:
as §1, §2, §3, §4, §5, §6, §7, §8

Experiment [5] concerns NC-37. The experiment in a line: Six-day cell proliferation assay (CellTiter-Glo). It counts as cell-based. Particulars: Homo sapiens, 144 h; NC-37 (Burkitt lymphoma), 6 days; read-out: Average day 6 gIC50. As to the method: as §1, §2, §3, §4, §5, §6, §7, §8
Experiment [6] concerns KASUMI-1. The experiment can be described thus: Six-day cell proliferation assay (CellTiter-Glo). As to conditions: Homo sapiens, 144 h; KASUMI-1 (AML), 6 days; read-out: Average day 6 gIC50. In kind it is cell-based. As to the method: as §1, §2, §3, §4, §5, §6, §7, §8
Experiment [7] concerns L363. The experiment can be described thus: Six-day cell proliferation assay (CellTiter-Glo). It counts as cell-based. Particulars: Homo sapiens, L-363, 144 h; L363 (Plasma cell leukemia), 6 days; read-out: Average day 6 gIC50. As to the method:
as §1, §2, §3, §4, §5, §6, §7, §8

The subject of experiment [8] is MOLP-8. The experiment can be described thus: Six-day cell proliferation assay (CellTiter-Glo). It counts as cell-based. Particulars: Homo sapiens, 144 h; MOLP-8 (MM), 6 days; read-out: Average day 6 gIC50. The protocol:
as §1, §2, §3, §4, §5, §6, §7, §8

The test system of experiment [9] is DOHH-2. The experiment can be described thus: Six-day cell proliferation assay (CellTiter-Glo). As to conditions: Homo sapiens, 144 h; DOHH-2 (tFL), 6 days; read-out: Average day 6 gIC50. It counts as cell-based. The protocol: as §1, §2, §3, §4, §5, §6, §7, §8
The test system of experiment [10] is HuNS1. The experiment in a line: Six-day cell proliferation assay (CellTiter-Glo). In kind it is cell-based. As to conditions: 144 h; HuNS1 (Transformed B-lymphoblastoid), 6 days; read-out: Average day 6 gIC50. As to the method: as §1, §2, §3, §4, §5, §6, §7, §8
Experiment [11] relates to KMS-11. The experiment can be described thus: Six-day cell proliferation assay (CellTiter-Glo). In kind it is cell-based. As to conditions: Homo sapiens, 144 h; KMS-11 (Myeloma), 6 days; read-out: Average day 6 gIC50. The protocol:
as §1, §2, §3, §4, §5, §6, §7, §8

Experiment [12] has as its system GDM-1. The experiment can be described thus: Six-day cell proliferation assay (CellTiter-Glo). In kind it is cell-based. Particulars: Homo sapiens, 144 h; GDM-1 (AML), 6 days; read-out: Average day 6 gIC50. As to the method: as §1, §2, §3, §4, §5, §6, §7, §8
Experiment [13] concerns MM.1R. The experiment in a line: Six-day cell proliferation assay (CellTiter-Glo). It counts as cell-based. As to conditions: 144 h; MM.1R (MM), 6 days; read-out: Average day 6 gIC50. The protocol: as §1, §2, §3, §4, §5, §6, §7, §8
Experiment [14] deals with MC/CAR. The experiment can be described thus: Six-day cell proliferation assay (CellTiter-Glo). As to conditions: 144 h; MC/CAR (EBV+ B-lymphoblastoid), 6 days; read-out: Average day 6 gIC50. It counts as cell-based. As to the method: as §1, §2, §3, §4, §5, §6, §7, §8
Experiment [15] has as its system KMS-12PE. The experiment in a line: Six-day cell proliferation assay (CellTiter-Glo). It counts as cell-based. Particulars: Homo sapiens, 144 h; KMS-12PE (MM, Pleural effusion), 6 days; read-out: Average day 6 gIC50. The protocol: as §1, §2, §3, §4, §5, §6, §7, §8
Experiment [16] concerns JM1. The experiment in a line: Six-day cell proliferation assay (CellTiter-Glo). Particulars: Homo sapiens, 144 h; JM1 (B-cell lymphoma), 6 days; read-out: Average day 6 gIC50. In kind it is cell-based. As to the method: as §1, §2, §3, §4, §5, §6, §7, §8
Experiment [17] deals with 40 protein kinases, lipid kinases and kinase mutants. The experiment can be described thus: KinaseProfiler screen (Millipore). In kind it is biochemical. Particulars: 10 μM.

Take `CNC[C@@H](O)COc1ccc(Cl)c(-c2nc(-c3c(C)noc3C)c(C)c(N3CC4(CCN(C(=O)OC)CC4)C3)n2)c1` [EZM2302]: the IC50 was > 7.33 µM in experiment [1]; > 30.7 µM in experiment [2]; 6.54 µM in experiment [3]; 862 nM in experiment [4]; > 7.33 µM in experiment [5]; 13.3 µM in experiment [6]. Besides, the IC50 in experiment [7] is 16.1 µM; in experiment [8], 6.62 µM; in [9] it was 468 nM; in experiment [10] it was > 19 µM; in experiment [11] it was > 18.2 µM; in [12], 20.7 µM. Moreover, the IC50 in experiment [13] was 216 nM; in experiment [14] it was 241 nM; in experiment [15], > 17.9 µM; in experiment [16] it was > 7.33 µM. Moreover, the inhibition of kinases in [17] is listed as ≤ 30%.
